Measured values from patent publication US11020360B2, “Methods, compounds, compositions and vehicles for delivering 3-amino-1-propanesulfonic acid” (Bellus Health, Inc., priority 2006, dated 2021).
Several values for one entry are separate records, joined by “and”; a condition that tells them apart may be missing. Equal entries are not always repeated.

How the values were obtained:
[1] = Metabolic profiling of 14C-3APS in dogs; format: in vivo, male Beagle dogs; details: Dog plasma
Description: (§1) Three single dose studies were conducted in mice, rats and dogs to determine the metabolic profile of ^14C-3APS in plasma, urine and feces. In the first study, twenty-seven male CD-1 mice received a single dose of 100 mg/kg (20 μCi/animal) of ^14C-3APS by oral gavage. Blood samples (3 animals/time point) were collected for 12 hr following drug administration while urine and feces (3 animals/time point) samples were collected for 96 hr. In the second study, eight male Sprague-Dawley rats received a single dose of 100 mg/kg (50 μCi/animal) of ^14C-3APS by oral gavage while in the third study, three male Beagle dogs received a single dose of 100 mg/kg (30 μCi/kg) of ^14C-3APS by oral gavage. For the rat and dog studies, blood samples were collected for 24 hr following drug administration while urine and feces samples were collected for 72 hr. All samples were analyzed for total radioactivity using appropriate sample preparation procedures and scintillation counting. Plasma and urine samples were also analyzed for 3APS and 3APS metabolites (2-carboxyethanesulfonic acid, 3-hydroxy-1-propanesulfonic acid and 3-acetylamino-1-propanesulfonic acid) concentrations using qualified HPLC and MS/MS methods.

[2] = Absorption, excretion and plasma kinetics of 14C-3APS in humans; format: in vivo, human
Description: Following the identification of 3APS metabolites, plasma and urine samples from this human AME study were reanalyzed for 3APS and 3APS metabolite (2-carboxyethanesulfonic acid, 3-hydroxy-1-propanesulfonic acid and 3-acetylamino-1-propanesulfonic acid) concentrations using qualified HPLC and MS/MS methods to determine the metabolic profile of ^14C-3APS in human.

[3] = Single oral and IV administration of 14C-3APS to rats; format: in vivo, male Sprague-Dawley rats; details: for AUC0-∞ / AUC(0-inf): 100 mg/kg 14C-3APS, rats, 100 mg/kg; for AUC(0-inf): male, Sprague-Dawley, rat, plasma
Description: The purpose of this study was to investigate the absorption, metabolism and excretion profiles of ^14C-3APS following a single intravenous bolus and oral administration to rats. Thirty-six male Sprague-Dawley rats received a single 100 mg/kg (˜50 μCi/animal) dose of ^14C-3APS by an IV bolus injection (water or isotonic saline solution) and an additional 36 male rats received the same dose level by oral gavage (in water). Blood, urine, feces, brain and CSF samples were collected for up to 72 hr following dose administration. Plasma, urine, brain and CSF concentrations of 3APS and 2-carboxyethanesulfonic acid (3APS major metabolite) were measured using LC and MS/MS detection method. Plasma, urine, feces, brain and CSF samples were analyzed for total radioactivity using appropriate sample preparation procedures and scintillation counting.

[4] = Bioavailability of exemplary compounds in mice (3APS quantified in plasma); format: in vivo; details: mouse, oral, 3APS in plasma
Description: Selected exemplary compounds were tested for bioavailability in mice. Bioavailability estimates are performed for 3APS after administration of molar equivalent the selected compounds. […] The animals are anesthetized with isoflurane before blood collection (approximately 45 sec). Samples are collected at 5, 30, 60, 120, 180, 240 and 360 min post intravenous administration and at 15, 30, 60, 120, 180, 240 and 360 min post oral administration. One animal is used to obtain a baseline sample (pre-dose sample). Blood samples are collected into Sarstedt™ micro tubes (EDTA KE/1.3 ml), kept on ice until centrifugation at 4° C. at a minimum speed of 3000 rpm (1620 G) for 10 min. Plasma samples are transferred into Eppendorf™ tubes, immediately placed on dry ice and stored at −80° C. Plasma samples are stored frozen at […] pending analysis.
Compounds in mouse plasma are extracted using protein precipitation. Quantitation of 3APS in mouse plasma matrix is achieved using LC-MS detection. Sample concentration is calculated using a calibration curve.

human hepatocyte (HepG2) = assay: Incubation of 3APS in human hepatocyte (HepG2) culture media; format: in vitro ADME; details: after incubation of 3APS in HepG2 culture media
Description: In another in vitro model employing organotypic hippocampal slice culture, the conversion of 3APS to 2-carboxyethanesulfonic acid was time-dependent. More than 60% of 3APS was converted to 2-carboxyethanesulfonic acid after 3-day incubation in the culture media. 2-carboxyethanesulfonic acid was also detected after incubation of 3APS in human hepatocyte (HepG2) culture media.

[5] = Previous metabolic stability studies of 3APS; format: in vitro ADME
Description: Those studies include: 3APS metabolic stability in pooled human hepatocytes, human, rat and dog liver microsomes, human intestinal microflora, pooled human liver cytosol, and human arylamine N-acetyltransferase (See Examples 4 and 5).

[6] = Metabolic profiling of 14C-3APS in rats; format: in vivo, male Sprague-Dawley rats
Description: as §1

[7] = Single oral, intravenous and portal administration of 3APS in rats; format: in vivo, male Sprague-Dawley rats
Description: The purpose of this study was to compare the pharmacokinetic profile of 3APS following a single dose administration either orally, intravenously or into the portal vein to male Sprague-Dawley rats. The oral, intravenous and portal routes of administration were selected to determine the intestinal and hepatic first-pass effects in the rat. Three groups of 4 male Sprague-Dawley rats were assigned to receive a single dose of 250 mg/kg 3APS by different routes of administration. One group received 3APS as an IV bolus administration (in water or isotonic saline solution), one group by oral gavage (in water) and the last group via a catheter into the portal vein (in water or isotonic saline solution). Blood samples were collected for 24 hours following dose administration. Plasma concentrations of 3APS and 2-carboxyethanesulfonic acid (the major metabolite of 3APS) were determined using LC and MS/MS method.

[8] = PK brain and plasma levels of oral Compound A2 and 3-APS in mice; format: in vivo; details: oral 0.18 mmol/kg
Description: Compounds A2 and 3-aminopropanesulfonic acid were tested for pharmacokinetic parameters in mice. Parmacokinetic parameters (Cmax, Tmax, T½, AUC) are evaluated for 3APS after administration of a molar equivalent of each compound. Blood samples (approximately 1 ml) and brain samples are collected from each of 3 animals at time points 5, 15, 30 minutes, 1, 2, 4, 6, 12, and 24 hours. […] A 2-fold increase in plasma concentration (Cmax) of 3-APS was observed when orally administering Compound A2 compared to 3-APS.

[9] = analyte after single oral 100 mg/kg 14C-3APS
[10] = male, Beagle, dog, plasma, po, 100 mg/kg, analyte after single oral 100 mg/kg 14C-3APS
[11] = Rat plasma, analyte after single oral 100 mg/kg 14C-3APS
[12] = male, Sprague-Dawley, rat, plasma, po, 100 mg/kg, Rat plasma, analyte after single oral 100 mg/kg 14C-3APS

For NCCCS(=O)(=O)O [Compound 3APS, 3-amino-1-propanesulfonic acid], the AUC0-τ [1, 9] was 24.5 µmol·min/mL, the “AUC∞” value [1, 9] was 25.3 µmol·min/mL and the T1/2 ([1]; analyte after single oral 100 mg/kg 14C-3APS, 100 mg/kg) was 5.04 h. The Tmax [1, 10] was about 30 min, the half-life [1, 10] was about 300 min and the Cmax ([1]; male, Beagle, analyte (3APS or metabolite) after single oral 100 mg/kg 14C-3APS) was 250 µM. The “% of total radioactivity in plasma based on AUC0-τ” value ([2]; healthy subjects, oral 14C-3APS) was “approximately 48%”, the “% of total amount of radioactivity excreted in urine” value ([2]; human urine) was “approximately 15%” and the “AUC0-∞” value ([3]; IV, individual animals 1001-1004) was 1420 nmol·h/mL and 1591 nmol·h/mL and 1147 nmol·h/mL. For the same compound, the “% of total radioactivity (AUC0-∞ analyte/AUC total radioactivity)” value ([3]; IV, Mean) was 89%, the “AUC0-∞” value ([3]; PO, individual animals 3001-3004) was 539 nmol·h/mL and 407 nmol·h/mL and 471 nmol·h/mL and the “% of total radioactivity (AUC0-∞ analyte/AUC total radioactivity)” value ([3]; PO, Mean) was “about 68%”. It also gave an AUC(0-inf) ([3]; iv, Mean) of 1420 µM·h, an AUC(0-inf) ([3]; iv, individual animals 1001-1004) of 1530 µM·h and an AUC(0-inf) ([3]; po, Mean) of 507 µM·h. The AUC(0-inf) ([3]; po, individual animals 3001-3004) was 610 µM·h, the Tmax [4] was 15 min and the “formation of 2-carboxyethanesulfonic acid” value (human hepatocyte (HepG2)) was “detected”. The in vitro metabolism [5] was “no in vitro metabolism”, the AUC0-τ [6, 11] was 26.7 µmol·min/mL and the “AUC∞” value [6, 11] was 27.6 µmol·min/mL. For the same compound, the T1/2 ([6]; Rat plasma, analyte after single oral 100 mg/kg 14C-3APS, 100 mg/kg) was 6.43 h, the “% of Total Radioactivity, Urine” value ([6]; Rat, amount excreted, single oral 100 mg/kg 14C-3APS) was 59% and the Tmax [6, 12] was about 30 min. The half-life [6, 12] was about 360 min, the Cmax ([6]; male, Sprague-Dawley, Rat plasma, analyte (3APS or metabolite) after single oral 100 mg/kg 14C-3APS) was 218 µM and the “metabolism of 3APS associated with hepatic first-pass” value ([7]; hepatoportal versus intravenous exposure, 250 mg/kg) was 24%. The “bioavailability based on the AUC∞” value ([7]; oral 250 mg/kg) was “about 38%”, the “metabolism of 3APS associated with intestinal first-pass” value ([7]; oral versus hepatoportal exposure, 250 mg/kg) was 43% and the “Brain AUC” value ([8]; 3-APS analysed) was “BLLQ”. The “Brain Cmax” value ([8]; 3-APS analysed) was “BLLQ” and the “Brain concentration of 3-APS” value [8] was “could not be quantified”.
